The data set is described as follows: in vitro. The note with it: rat, erythrocytes. As for the experimental part: Cytotoxicity of the bovine excretion extracts according to the present invention was tested by measuring degree of hemolysis of erythrocytes. To erytlirocytes isolated from rats, the extracts prepared in example 1 were added and then, the mixture was cultivated at a temperature of 37° C. for 30, 60 and 120 minutes, respectively. After centrifugation, 400 μl of medium was taken and then reagent for detection of hemolysis was added thereto. Then, absorbance was read at 540 nm to determine degree of hemolysis. Degree of hemolysis (%) is calculated as follows: [formula]
Erythrocytes treated with menadione (positive control) were measured on degree of hemolysis, for the purpose of comparison with the bovine excretion extracts prepared in example 1. Menadione is a known compound which induce hemolysis of erythrocytes.

Our source for the hemolysis values is patent US6248367A, “Bovine excretion extracts having anticancer and anti-inflammatory activity and process for preparing the same” (Kim; Bok Deuk, priority 1998, dated 2001).

Take `CC1=CC(=O)c2ccccc2C1=O` [menadione, Menadione]: the hemolysis at 0 h worked out at 0%, the hemolysis at 0.5 h came out at 1.6 ± 1.3%, the hemolysis at 1 h came out at 2.3 ± 0.4% and the hemolysis at 2 h came out at 65.3 ± 4.8%.
